Legend:
HEK293 cells [1] = assay: Cellular uptake of peptide/Cy5-pDNA complexes by flow cytometry; assay type: cell-based; settings: peptide/Cy5-pDNA complex at N/P = 8, HEK293 cells, flow cytometry 488 nm excitation, n = 4 (Figure S1)
Experimental: (§1) The intracellular uptake of Cy5-labeled pDNA complexed with peptides F-1–F-4 was evaluated in […] cells. The fluorescence intensity of Cy5 incorporated into […] was quantified using flow cytometry at 24 h after administration (Figure 5). […] The stability of the peptide/pDNA complex was then evaluated by adding the negatively charged competitive inhibitor, dextran sulfate.
Figure 5 Cellular uptake of peptide/Cy5-pDNA complexes at N/P = 8 in HEK293 cells. The cellular uptake ability was determined by flow cytometry. The cells were excited with a 635 nm light for detecting Cy5-pDNA. Error bars represent the mean ± standard deviation, n = 4.
Each 1 mM peptide solution in DMSO and pDNA was dissolved separately in 10 mM Hepes buffer (pH 7.3). To form peptide/pDNA complexes, peptide solutions of various concentrations were added to the pDNA solution in 2-fold excess. The final pDNA concentration was adjusted to 33.3 mg/mL. After the complex solutions were stored at room temperature for 15 min, the complex solutions were added. […]
HEK293 cells were seeded on 24-well culture plates (100,000 cells/well) and incubated overnight in 500 μL of DMEM. […] The cell pellets obtained were suspended in PBS and the cells were analyzed by a BD accuri C6 Plus flow cytometer (BD Bioscience, New Jersey).
Figure S1. […] Cellular uptake ability was determined by flow cytometry. […]

pDNA = assay: Displacement assay with dextran sulfate (gel retardation); assay type: physicochemical; settings: N/P = 8, 100 ng pDNA, 30 min at 37 °C, agarose gel
Experimental: as §1
Complex with 100 ng of pDNA and peptide at N/P ratio = 8 were incubated for 30 min at 37 °C in the presence of dextran sulfate (sodium salt, Wako, Japan) at various concentrations ranging 0, 0.05, 0.1, 0.5, and 1 mg/mL. After the incubation, the samples were analyzed on agarose gel and the gel was stained with SYBR Gold (Thermo Fisher Scientific, Waltham, MA, USA).
Figure S1. Cellular uptake of peptide/Cy5-pDNA complexes at N/P = 8 with HEK293 cells. Cellular uptake ability was determined by flow cytometry. The cells were excited with a 488 nm light from an LD laser for detecting FAM-p eptide. Error bars represent the mean±standard deviation, n = 4.
Dextran sulfate Dextran sulfate Dextran sulfate Dextran sulfate […]
Figure S2. Physicochemical characterization of peptide/pDNA complexes at N/P = 8 with dextran sulfate. Gel retardation assay for evaluation of the stability and the dissociation of the peptide/pDNA complexes upon treatment with dextran sulfate at different concentrations ranging from 0 to 1 mg/mL. […]

[2] = DLS measurement of peptide/pDNA complexes (size, PDI); assay type: physicochemical; settings: peptide/pDNA complex, mean ± SD of 3 measurements; for Size: cumulant method
Experimental: (§2) The ability of peptides F-1–F-4 to deliver pDNA was evaluated using complexes between the peptides and pDNA in 10 mM Hepes buffer (pH 7.3). The zeta potentials and sizes of the peptide/pDNA complexes prepared at various charge ratios were determined (Table 2). The size of the F-1 peptide/pDNA complexes at a charge ratio of 2 was 3364 nm, and the sizes decreased with an increase in the charge ratios (Table 2). The sizes of the peptide/pDNA complexes were in the order of several hundred nm, which is considered to be a useful size for the delivery of pDNA, except for the complex with F-1 at N/P = 2, which was defined as the residual molar ratio of the amino groups in polycations of peptides (N) to the phosphate groups in pDNA (P). […] Thus, we examined the complexes of F-1–F-4 at N/P = 8 to evaluate the effect of the stapling of TP10 on the ability to deliver pDNA.
(§3) Each 1 mM peptide solution in DMSO and pDNA was dissolved separately in 10 mM Hepes buffer (pH 7.3). To form peptide/pDNA complexes, peptide solutions of various concentrations were added to the pDNA solution in 2-fold excess. The final pDNA concentration was adjusted to […]. After the complex solutions were stored at room temperature for 15 min, the complex solutions were added. The charge ratio was defined as the residual molar ratio of the amino group of amino acid in the peptide to the phosphate group in the pDNA.
(§4) The zeta-potentials of the peptide/pDNA complexes in 10 mM Hepes buffer (pH 7.3) were evaluated by the laser-Doppler electrophoresis method using Nano ZS (ZEN3600, Malvern Instruments, Ltd., Malvern, UK) with a He–Ne ion laser (633 nm). Light scattering data were obtained at a detection angle of 173° and temperature of 25 °C, and were subsequently analyzed by the cumulant method to obtain the hydrodynamic diameters, polydispersity indices (PDI) (m/G^2) and zeta-potential of the complexes. Results were presented as the mean and standard deviation of 3 measurements (Table 2).

HEK293 cells [3] = assay: Cellular-uptake mechanism: endocytosis inhibitors and 4 °C; assay type: cell-based; settings: peptide 5 µM, flow cytometry
Description: To inhibit specific endocytic pathways, three different inhibitors were used: amiloride, nystatin, and sucrose. Each inhibitor targets a distinct endocytic pathway: amiloride inhibits […] (a form of endocytosis where cells engulf fluid and solutes); nystatin inhibits caveolae-mediated endocytosis (a process involving small invaginations in the cell membrane called caveolae); and sucrose inhibits clathrin-mediated endocytosis (a mechanism in which the protein clathrin forms coated pits on the cell surface to internalize molecules). As a control, a peptide called nona-arginine (R9) with CF […] was used. This peptide is known to enter cells via endocytosis. The uptake of CF-R9 with that of the parent peptide F-1 and the stapled peptide F-3 was compared.
HEK293 cells were seeded in 24-well plates at a density of 200,000 cells/well and cultured in DMEM for 23 h. After the medium had been replaced with fresh medium containing 10% FBS in the absence or presence of amiloride (5 mM), sucrose (0.4 M), or nystatin (25 μg/mL), the cells were pre-incubated at 37 °C for 30 min. Then, the cells were treated with the relevant peptide (peptide concentration; 5 µM) and incubated for 30 min at 37 °C. […] Then, the cells were analyzed by a BD accuri C6 Plus flow cytometer (BD Bioscience, New Jersey). […]

[4] = Zeta-potential measurement of peptide/pDNA complexes; assay type: physicochemical; settings: peptide/pDNA complex, laser-Doppler electrophoresis, 10 mM Hepes pH 7.3, 25 °C, mean ± SD of 3 measurements
Experimental: as §2, §3, §4

[5] = CD spectroscopy, secondary structure (R value); assay type: physicochemical; settings: 10% acetonitrile in 20 mM phosphate buffer pH 7.4, peptide 50 µM, ratio of CD signal intensities at 222 and 208 nm
Experimental: CD measurements were performed to analyze the preferred secondary structures of the synthesized peptides F-1–F-4 (10% acetonitrile in 20 mM phosphate buffer, pH 7.4) (Figure 2). […] These characteristic Cotton effects indicated the presence of a helical structure in F-1. […] To further evaluate the dominant secondary structures of the peptides, a parameter called the R value (θ222/θ208) was calculated. The R value represents the ratio of the CD signal intensities at 222 nm and 208 nm, respectively. For the peptides F-1, F-2, F-3, and F-4, the R values were determined to be 0.72, 1.83, 0.95, and 1.58, respectively. Based on previous studies, these R values indicate that the dominant secondary structures of all the peptides were α-helices.
CD spectra were recorded with a JASCO J-1100 CD spectrometer using a 1.0 mm path length cell. The data are expressed in terms of [θ]; i.e., total molar ellipticity (deg cm^2 dmol^−1). Peptides were dissolved in 10% MeCN in 20 mM phosphate buffer solution at 50 µM concentrations. Each parameter was: wavelength: 190–260 nm; bandwidth: 1 nm; response: 1 s; speed: 50 nm min^−1; accumulations: 3 times; and path length: […].

[6] = N/P ratio 2, 10 mM Hepes pH 7.3, 25 °C
[7] = N/P ratio 4, 10 mM Hepes pH 7.3, 25 °C
[8] = N/P ratio 8, 10 mM Hepes pH 7.3, 25 °C

Substance: CF-XAGYLLGKINLKALAAS5*AKKS5*L (sidechain bridge or staple) [F-3, C-terminal stapled TP10 analog, Leu and Ile replaced with S5 residues, CF-labelled]
- fluorescence from peptide detected by CF after adding peptide/Cy5-pDNA complex (HEK293 cells [1]): strongest fluorescence
- concentration of dextran sulfate at which the peptide/pDNA complex dissociated (pDNA; dextran sulfate 0, 0.05, 0.1, 0.5, 1 mg/mL, SYBR Gold (Figure S2)): 0.5 mg/mL
- stability of the peptide/pDNA complex against dextran sulfate (pDNA; dextran sulfate 0-1 mg/mL): less stable than the other complexes
- Size [2, 6]: 391 ± 8 nm
- PDI [2, 6]: 0.417 ± 0.049
- Size [2, 7]: 352 ± 57 nm
- PDI [2, 7]: 0.366 ± 0.054
- Size [2, 8]: 324 ± 53 nm
- PDI [2, 8]: 0.399 ± 0.083
- cellular uptake when incubated at 4 °C (HEK293 cells [3]; 30 min at 4 °C compared with 37 °C): significantly inhibited
- cellular uptake when treated with endocytosis inhibitors (HEK293 cells [3]; 30 min at 37 °C after 30 min pre-incubation with amiloride (5 mM), sucrose (0.4 M) or nystatin (25 μg/mL), n=3): significantly inhibited
- Zeta-Potential ([4]; N/P ratio 2): 22.9 ± 1.1 mV
- Zeta-Potential ([4]; N/P ratio 4): 18.0 ± 1.7 mV
- Zeta-Potential ([4]; N/P ratio 8): 20.6 ± 3.0 mV
- R value (θ222/θ208) [5]: 0.95
